How the values were obtained:
[1] = test system: rat somatic cells except adipocytes; assay: Cytotoxicity test by MTT assay (Experiment 10-1); type: cell-based; conditions: 50 ppm
Description: Determine if 50 ppm of caffeine and L-carnitine have toxicity to cells other than adipocytes by MTT assay. Only if the drug is deemed non-toxic will lipolysis test be proceeded.

[2] = test system: mature adipocytes (differentiated 3T3-L1 cells); assay: Apoptosis of mature adipocytes, annexin V/PI flow cytometry (Experiment 10-2); type: cell-based; conditions: 50 ppm total drug (complexes: 20 ppm curcumin + 30 ppm hydrophilic drug), 24 hours; sterile water control 0.8±0.4%
Description: The curcumin cell culture medium: same as the preparation of the curcumin cell culture medium in Experiment 8-2. […] Caffeine (purchased from Sigma-Aldrich) was mixed with an appropriate amount of sterile water to obtain a caffeine solution. The caffeine solution was mixed with a cell culture medium to prepare the caffeine cell culture medium containing 50 ppm of caffeine. Wherein, the volume ratio of the caffeine cell culture medium and the cell culture medium was 1:1000. The L-carnitine cell culture medium: L-carnitine (purchased from Sigma-Aldrich) was mixed with an appropriate amount of sterile water to obtain a L-carnitine solution. The L-carnitine solution was mixed with a cell culture medium to prepare the caffeine cell culture medium containing 50 ppm of L-carnitine. Wherein, the volume ratio of the L-carnitine cell culture medium and the cell culture medium was 1:1000. The curcumin-caffeine complex cell culture medium: Curcumin and caffeine were mixed with an appropriate amount of sterile water to prepare a curcumin-caffeine complex solution. […] Wherein, the concentration of curcumin was 20 ppm, the concentration of caffeine was 30 ppm, and the volume ratio of the curcumin-caffeine complex solution and the cell culture medium was 1:1000. The curcumin-L-carnitine complex cell culture medium: Curcumin and L-carnitine were mixed with an appropriate amount of sterile water to prepare a curcumin-L-carnitine complex solution. […] Wherein, the concentration of curcumin was 20 ppm, the concentration of L-carnitine was 30 ppm, and the volume ratio of the curcumin-L-carnitine complex solution and the cell culture medium was 1:1000. […] Annexin V protein (purchased from eBioscience) and propidium iodide (PI; purchased from eBioscience) were mixed with the cells in each group for a period of time, and then the percentage of cells labeled by annexin V protein and PI in each group was analyzed by flow cytometry to assess the percentage of mature adipocytes undergoing apoptosis.

[3] = test system: mature adipocytes (differentiated 3T3-L1 cells); assay: Apoptosis of mature adipocytes, annexin V/PI flow cytometry (Experiment 8-2); type: cell-based; conditions: 50 ppm total drug (complexes: 20 ppm curcumin + 30 ppm second drug), 24 hours; DMSO control 0.8±0.2%
Description: The curcumin cell culture medium: curcumin was mixed with an appropriate amount of 0.5% DMSO solution to obtain a curcumin solution. The curcumin solution was mixed with a cell culture medium (product name: Dulbecco's Modified Eagle Medium, purchased from Gibco) to prepare the curcumin cell culture medium containing 50 ppm of curcumin, wherein, the volume ratio between the curcumin solution and the cell culture medium was 1:1000. The puerarin cell culture medium: puerarin (purchased from Sigma-Aldrich) was mixed with an appropriate amount of 0.5% DMSO solution to obtain a puerarin solution. The puerarin solution was mixed with a cell culture medium to prepare the puerarin cell culture medium containing 50 ppm of puerarin, wherein, the volume ratio between the puerarin solution and the cell culture medium is 1:1000. The quercetin cell culture medium: quercetin (purchased from Sigma-Aldrich) was mixed with an appropriate amount of 0.5% DMSO solution to obtain a quercetin solution. The quercetin solution was mixed with a cell culture medium to prepare the quercetin cell culture medium containing 50 ppm of quercetin, wherein, the volume ratio between the quercetin solution and the cell culture medium was 1:1000. The synephrine cell culture medium: synephrine (purchased from Sigma-Aldrich) was mixed with an appropriate amount of 0.5% DMSO solution to obtain a synephrine solution. The synephrine solution was mixed with a cell culture medium to prepare the synephrine cell culture medium containing 50 ppm of synephrine, wherein, the volume ratio between the synephrine solution and the cell culture medium was 1:1000. The curcumin-puerarin complex cell culture medium: curcumin and puerarin were mixed with an appropriate amount of 0.5% DMSO solution to obtain a curcumin-puerarin complex solution. […] The curcumin-quercetin complex cell culture medium: curcumin and quercetin were mixed with an appropriate amount of 0.5% DMSO solution to obtain a curcumin-quercetin complex solution. […] Experimental procedure to determine the lipolysis efficacy on mature adipocytes The adipocyte precursors 3T3-L1 cells (purchased from the Food Industry Research and Development Institute, Taiwan; abbreviated as BCRC) were seeded in 12-well plates, such that each well contained 1×10^5 cells. […] Annexin V protein (purchased from eBioscience) and propidium iodide (PI; purchased from eBioscience) were mixed with the cells in each group for a period of time, and then the percentage of cells labeled by annexin V protein and PI in each group was analyzed by flow cytometry to assess the percentage of mature adipocytes undergoing apoptosis. […] The data were presented as mean±SD and analyzed by one-way ANOVA. […]

[4] = test system: lower inguinal subcutaneous fat of rats; assay: Administered dosage of curcumin-resveratrol complex composition, localized subcutaneous fat of rats (Experiment 7-5); type: in vivo; conditions: 0.04 μg/kg injected on days 1-4; 14-day experiment; high-fat diet control 100±15.2%
Procedure: LIPO-202 is a local lipolysis injection formulation currently undergoing clinical trials, and its main ingredient is salmeterol xinafonate. • (i) 1 mg of salmeterol xinafonate (purchased from Sigma-Aldrich) was mixed with an appropriate amount of methanol to a total volume of 1 mL to obtain a 1 mg/mL stock solution. • (ii) The stock solution was 10-fold serial diluted with sterile water to prepare a salmeterol xinafonate solution of a final concentration of 0.01 μg/mL, which is the LIPO-202 solution used in this experiment. same as the preparation of the curcumin-resveratrol complex solution comprising ELP described in Experiment 7-2. […] The rats were fed in the same manner described in Experiment 2. […] The LIPO-202 solution was injected to the lower inguinal subcutaneous fat layer of rats in the LIPO-202 group. […] The 1 mg/mL complex formula group: […] The 5 mg/mL complex formula group: The curcumin-resveratrol complex pharmaceutical composition was injected to the lower inguinal subcutaneous fat layer of rats in the 5 mg/mL complex formula group. […] The 10 mg/mL complex formula group: […] The 20 mg/mL complex formula group: […] Rats were injected once a day on day 1, 2, 3, and 4 of the experiment. The rats were fed with high-fat diet for the entire duration of the experiment. The experiment lasted for 14 days, and the rats were euthanized on day 15 by CO2.

[5] = test system: lower inguinal subcutaneous fat of rats; assay: Dosing frequency of curcumin-resveratrol complex composition, localized subcutaneous fat of rats (Experiment 7-4); type: in vivo; conditions: 10.3 mg/kg on days 1, 3, 5 (total 30.9 mg/kg); 20-day experiment; control 100.0±22.6%
Procedure: (§1) Preparation of the sodium deoxycholate solution: An appropriate amount of sodium deoxycholate was mixed with sterile water for injection to make the concentration of sodium deoxycholate 2.575 mg/mL. The solution was mixed well to obtain the sodium deoxycholate solution. Wherein, sodium deoxycholate (purchased from Sigma-Aldrich, cat #D6750) is the main ingredient of the local lipolysis injection formulation ATX-101 (brand name: KYBELLA®) in the market.
(§2) Preparation of the curcumin-resveratrol complex pharmaceutical composition: same as the preparation of the curcumin-resveratrol complex solution comprising ELP described in Experiment 7-2. Wherein, the total concentration of curcumin and resveratrol was 5 mg/mL, and the ratio of curcumin to resveratrol was 4:1.
(§3) The rats were randomly assigned into 4 groups, which were a high-fat diet control group, a sodium deoxycholate group, a high-dosing frequency curcumin-resveratrol group (abbreviated as high-dosing frequency group in this experiment), and a low-dosing frequency curcumin-resveratrol group (abbreviated as low-dosing frequency group in this experiment). The rats were fed in the same manner described in Experiment 2.
(§4) The sodium deoxycholate group: The sodium deoxycholate solution was injected to the lower inguinal subcutaneous fat layer of rats in the sodium deoxycholate group. […]

[6] = Dosing frequency of curcumin-resveratrol complex composition, body weight gain of rats (Experiment 7-4); type: in vivo; conditions: 10.3 mg/kg on days 1, 3, 5 (total 30.9 mg/kg); control 100.0±11.6%
Procedure: as §1, §2, §3, §4

[7] = test system: lower inguinal subcutaneous fat of rats; assay: Dosing frequency of curcumin-green tea extract complex composition, localized subcutaneous fat of rats (Experiment 9-2); type: in vivo; conditions: 10.3 mg/kg on days 1, 3, 5 (total 30.9 mg/kg); 20-day experiment; control 100.0±22.6%
Procedure: (§5) Preparation of the sodium deoxycholate solution: same as the preparation of the sodium deoxycholate solution in Experiment 7-4.
(§6) Preparation of the curcumin-green tea extract complex pharmaceutical composition: 0.8 g of curcumin was mixed with 150˜200 mL of dichloromethane and stirred at 150˜500 rpm to completely dissolve curcumin. 40 g of KOLLIPHOR® ELP (also known as CREMOPHOR® ELP, polyoxyl 35 castor oil, abbreviated as ELP) was added and stirred at 100˜300 rpm to volatilize dichloromethane. Once dichloromethane volatilized completely, normal saline for injection was slowly added to a total volume of 200 mL. Wherein, the normal saline for injection comprised 0.2 g of green tea extract. The solution was mixed well to obtain the curcumin-green tea extract complex solution comprising ELP. Said curcumin-green tea extract complex solution comprising ELP comprised drug-containing micelles, the total concentration of curcumin and green tea was 5 mg/mL, and the weight ratio of curcumin and green tea extract was 4:1
as §3, with “curcumin-green tea extract” for “curcumin-resveratrol”, “group). […]” for “group in this experiment). The rats were fed in the same manner described in Experiment 2.”

[8] = Dosing frequency of curcumin-green tea extract complex composition, body weight gain of rats (Experiment 9-2); type: in vivo; conditions: 10.3 mg/kg on days 1, 3, 5 (total 30.9 mg/kg); control 100.0±11.6%
Procedure: as §5, §6
as §3, with “curcumin-green tea extract” for “curcumin-resveratrol”, “group). […]” for “group in this experiment). The rats were fed in the same manner described in Experiment 2.”

Molecule	percentage of apoptotic cells [2]	percentage of apoptotic cells [3]	other results
Cn1c(=O)c2c(ncn2C)n(C)c1=O [caffeine]	2.0±1.7%		cytotoxicity (MTT assay) [1]: not cytotoxic
O=c1c(O)c(-c2ccc(O)c(O)c2)oc2cc(O)cc(O)c12 [quercetin]		1.8±0.6%	
OCc1cc(C(O)CNCCCCCCOCCCCc2ccccc2)ccc1O (centres unmarked) [LIPO-202, salmeterol xinafonate]			relative weight of the lower inguinal subcutaneous fat [4]: 97.8±12.8%
CNCC(O)c1ccc(O)cc1 (centres unmarked) [synephrine]		0.9±0.2%	
sodium deoxycholate			relative weight of the lower inguinal subcutaneous fat [5]: 88.8±16.7%; relative weight gain [6]: 100.2±12.6%; relative weight of the lower inguinal subcutaneous fat [7]: 88.8±16.7%; relative weight gain [8]: 100.2±12.6%
COc1cc(/C=C/C(=O)CC(=O)/C=C/c2ccc(O)c(OC)c2)ccc1O [curcumin]	78.4±5.4%	78.4±5.4%	
C[N+](C)(C)C[C@H](O)CC(=O)[O-] [L-carnitine]	1.7±0.5%		cytotoxicity (MTT assay) [1]: not cytotoxic
O=c1c(-c2ccc(O)cc2)coc2c([C@@H]3O[C@H](CO)[C@@H](O)[C@H](O)[C@H]3O)c(O)ccc12 [puerarin]		2.0±1.6%	

Source: patent US11318110B2, “Pharmaceutical composition for reducing local fat and uses thereof” (Caliway Biopharmaceuticals Co., Ltd., priority 2015, dated 2022)
